Earlier results in patent US10098846B2, “Drug-containing particulate composition with cationic agent, associated medical devices, and methods for treatment” (Surmodics, Inc., priority 2016, dated 2018).

solubility in N,N-dimethylformamide (N,N-dimethylformamide): soluble
solubility in acetone (acetone): soluble
solubility in ether (ether): soluble
solubility in water (water): insoluble
Compound: CO[C@H]1C[C@@H]2CC[C@@H](C)[C@@](O)(O2)C(=O)C(=O)N2CCCC[C@H]2C(=O)O[C@H]([C@H](C)C[C@@H]2CC[C@@H](O)[C@H](OC)C2)CC(=O)[C@H](C)/C=C(\C)[C@@H](O)[C@@H](OC)C(=O)[C@H](C)C[C@H](C)/C=C/C=C/C=C/1C [Rapamycin, rapamycin]
